Results: patent US7071344B1, “Vitamin D derivatives with cyclopropyl rings in the lateral chains, a method and intermediate products for the production thereof and the utilization thereof for producing medicaments” (Schering AG, priority 1997, dated 2006)

Columns and labels:
[1] = tested on: HL 60 cells; assay: differentiation induction of HL 60 cells to macrophages (NBT reduction); assay type: cell-based, human; details: dose ratio test substance/calcitriol for comparable semi-maximum differentiation induction; 96 hours incubation
Method: The differentiation-stimulating action of calcitriol analogues is also detected quantitatively.
It is known in the literature [Mangelsdorf, D. J. et al., J. Cell. Biol. 98: 391 (1984)] that the treatment of human leukemia cells (promyelocyte cell line HL 60) in vitro with calcitriol induces the differentiation of cells to macrophages.
HL 60 cells are cultivated in tissue culture medium (RPMI 10% fetal calf serum) at 37° C. in an atmosphere of 5% CO2 in air.
For substance testing, the cells are centrifuged off, and 2.0×10^5 cells/ml in phenol red-free tissue culture medium is taken up. The test substances are dissolved in ethanol and diluted with tissue culture medium without phenol red to the desired concentration. The dilution stages are mixed with the cell suspension at a ratio of 1:10, and 100 μl each of this cell suspension that is mixed with substance is pipetted into an indentation of a 96-hole plate. For control, a cell suspension is mixed analogously with the solvent.
After incubation for 96 hours at 37° C. in 5% CO2 in air, 100 μl of an NBT-TPA solution (nitro blue tetrazolium (NBT), final concentration in the batch of 1 mg/ml, tetradecanoyl phorbolmyristate-13-acetate (TPA), final concentration in the batch of 2×10^−7 mol/l) is pipetted into each indentation of the 96-hole plate in the cell suspension.
By incubation for 2 hours at 37° C. and 5% CO2 in air, NBT is reduced to insoluble formazan because of the intracellular oxygen radical release, stimulated by TPA, in the cells that are differentiated to macrophages.
To complete the reaction, the indentations of the 96-hole plate are suctioned off, and the cells are affixed to the bottom of the plate by adding methanol and dried after affixing. To dissolve the intracellular formazan crystals that are formed, 100 μl of potassium hydroxide (2 mol/l) and 100 μl of dimethyl sulfoxide are pipetted into each indentation and ultrasonically treated for 1 minute. The concentration of formazan is measured by spectrophotometry at 650 nm.
As a yardstick for the differentiation induction of HL 60 cells to macrophages, the concentration of formed formazan applies.

[2] = acute hypercalcemic action (serum-calcium) in rats; assay type: in vivo, rat; details: dose ratio test substance/calcitriol for comparable hypercalcemic action; one-time subcutaneous administration, male rats
Method: To determine the acute hypercalcemic action of various calcitriol derivatives, the test that is described below is carried out:
The action of control (solution base), reference substance (1,25-dihydroxy vitamin D3=calcitriol) and test substance is tested in each case after one-time subcutaneous administration in groups of 10 healthy male rats (140–170 g). During the testing time, the rats are kept in special cages to determine the excretion of water and mineral substances. Urine is collected in 2 fractions (0–16 hours and 16–22 hours). An oral dose of calcium (0.1 mmol of calcium in 6.5% alpha-hydroxypropylcellulose, 5 ml/animal) replaces at 1600 hours the calcium intake that is lacking by food deprivation. At the end of the test, the animals are killed by decapitation and exsanguinated to determine the serum-calcium values. For the primary screen test in vivo, an individual standard dose (200 μg/kg) is tested. For selected substances, the result is supported by establishing a dose-effect relation.
A hypercalcemic action is shown in serum-calcium level values that are higher than in the control.
The significance of differences between substance groups and controls and between test substance and reference substance are supported with suitable statistical processes.

[3] = metabolic stability in liver homogenate; assay type: in vitro ADME; details: half-life in the liver homogenate (rat)
Method: To determine the metabolic stability, the test substance is incubated with tissue homogenate (from the rat liver) in the presence of buffer systems. The drop in starting concentration is tracked as a function of time. After a certain time, the incubation is stopped, and the unaltered test substance is extracted from the homogenate (diethyl ether), concentrated by evaporation under nitrogen, isolated via HPLC (mobile solvent: acetonitrile/water) and detected using UV-absorption.

[4] = molecular target: T1, calcitriol receptor (Sus scrofa, UniProt A3RGC1); assay: calcitriol-receptor test (competition with 3H-calcitriol); details: competition factor = concentration of test substance / concentration of calcitriol at 50% competition; protein extract from intestines of juvenile pigs
T1 sequence (A3RGC1 1-427): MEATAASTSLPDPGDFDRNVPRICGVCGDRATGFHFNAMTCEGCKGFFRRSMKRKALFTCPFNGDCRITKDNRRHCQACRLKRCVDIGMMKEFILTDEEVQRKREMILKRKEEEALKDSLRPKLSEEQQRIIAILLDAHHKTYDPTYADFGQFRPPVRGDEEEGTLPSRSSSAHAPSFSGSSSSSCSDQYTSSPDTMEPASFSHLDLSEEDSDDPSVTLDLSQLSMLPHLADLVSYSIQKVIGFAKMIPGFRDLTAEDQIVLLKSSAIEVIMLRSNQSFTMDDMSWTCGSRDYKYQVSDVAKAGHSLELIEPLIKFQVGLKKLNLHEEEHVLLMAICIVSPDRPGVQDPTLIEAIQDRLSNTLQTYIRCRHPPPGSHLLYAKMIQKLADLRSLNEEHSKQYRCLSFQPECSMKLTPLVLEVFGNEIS
Method: The vitamin D activity of the substances according to the invention is determined with the aid of the calcitriol-receptor test. It is carried out using a protein extract from the intestines of juvenile pigs.
Then, the samples are centrifuged at 10,000 g for 5 minutes at 4° C. The supernatant is decanted and measured in a β-counter after 1 hour of equilibration in Picofluor 15™.
The competition curves that are obtained at various concentrations of test substance as well as of reference substance (unlabeled calcitriol) at constant concentration of the reference substance (^3H-calcitriol) are placed in relation to one another, and a competition factor (KF) is determined.
It is defined as a quotient of the concentrations of the respective test substance and the reference substance, which are necessary for 50% competition:

Compound | DR HL 60 [1] | DR Ca [2] | T½ [3] [h] | KF [4] | half-life ([3]; read-out: T½) [h]
C=C1/C(=C\C=C2/CCC[C@]3(C)[C@@H]([C@H](C)/C=C/[C@H](O)C4(CCCC)CC4)CC[C@@H]23)C[C@@H](O)C[C@@H]1O [Compound 226a, (5Z,7E,22E)-(1S,3R,24S)-25-Butyl-26,27-cyclo-9,10-secocholesta-5,7,10(19),22-tetraene-1,3,24-triol] | 2 | >>1 | 1.33 | 4 | –
C=C1C(=CC=C2CCCC3(C)C2CCC3C(C)C=CC(O)C2(CCCC)CC2)CC(O)CC1O [Compound 226b, (5Z,7E,22E)-(1S,3R,24R)-25-butyl-26,27-cyclo-9,10-secocholesta-5,7,10(19),22-tetraene-1,3,24-triol] | 0.4 | >5 | 1.67 | 3 | –
C=C1/C(=C\C=C2/CCC[C@]3(C)[C@@H]([C@H](C)/C=C/[C@@H](O)C4(CCCCCC)CC4)CC[C@@H]23)C[C@@H](O)C[C@@H]1O [Compound 231b, (5Z,7E,22E)-(1S,3R,24R)-25-hexyl-26,27-cyclo-9,10-secocholesta-5,7,10(19),22-tetraene-1,3,24-triol] | 2 | >100 | 1.25 | 9 | –
C=C1/C(=C\C=C2/CCC[C@]3(C)[C@@H]([C@H](C)/C=C/[C@@H](O)C4(CCCCCCC)CC4)CC[C@@H]23)C[C@@H](O)C[C@@H]1O [Compound 236b, (5Z,7E,22E)-(1S,3R,24R)-25-heptyl-26,27-cyclo-9,10-secocholesta-5,7,10(19),22-tetraene-1,3,24-triol] | 4 | >>30 | 1.67 | 20 | –
C=C1/C(=C\C=C2/CCC[C@]3(C)[C@@H]([C@H](C)/C=C/[C@@H](O)C4CC4)CC[C@@H]23)C[C@@H](O)C[C@@H]1O [calcipotriol, (5Z,7E,22E)-(1S,3R,24S)-26,27-Cyclo-9,10-secocholesta-5,7,10(19),22-tetraene-1,3,24-triol, reference compound] | 1 | 50 | – | 1 | 0.667
[5Z,7E,22E,25(Z)]-(1S,3R,24S)-25-(1-octenyl)-26,27-cyclo-9,10-secocholesta-5,7,10(19),22-tetraene-1,3,24-triol [Compound 246b] | 2 | >>10 | 1.67 | 10 | –
